Source: patent US20210395239A1 (Hoffmann-La Roche Inc., priority 2018, published 2021)

Biological target: T1, human TLR7 (Homo sapiens, UniProt Q9NYK1)
T1 construct: host or cells: HEK293 (HEK-Blue hTLR7)
T1 sequence (Q9NYK1 27-1049): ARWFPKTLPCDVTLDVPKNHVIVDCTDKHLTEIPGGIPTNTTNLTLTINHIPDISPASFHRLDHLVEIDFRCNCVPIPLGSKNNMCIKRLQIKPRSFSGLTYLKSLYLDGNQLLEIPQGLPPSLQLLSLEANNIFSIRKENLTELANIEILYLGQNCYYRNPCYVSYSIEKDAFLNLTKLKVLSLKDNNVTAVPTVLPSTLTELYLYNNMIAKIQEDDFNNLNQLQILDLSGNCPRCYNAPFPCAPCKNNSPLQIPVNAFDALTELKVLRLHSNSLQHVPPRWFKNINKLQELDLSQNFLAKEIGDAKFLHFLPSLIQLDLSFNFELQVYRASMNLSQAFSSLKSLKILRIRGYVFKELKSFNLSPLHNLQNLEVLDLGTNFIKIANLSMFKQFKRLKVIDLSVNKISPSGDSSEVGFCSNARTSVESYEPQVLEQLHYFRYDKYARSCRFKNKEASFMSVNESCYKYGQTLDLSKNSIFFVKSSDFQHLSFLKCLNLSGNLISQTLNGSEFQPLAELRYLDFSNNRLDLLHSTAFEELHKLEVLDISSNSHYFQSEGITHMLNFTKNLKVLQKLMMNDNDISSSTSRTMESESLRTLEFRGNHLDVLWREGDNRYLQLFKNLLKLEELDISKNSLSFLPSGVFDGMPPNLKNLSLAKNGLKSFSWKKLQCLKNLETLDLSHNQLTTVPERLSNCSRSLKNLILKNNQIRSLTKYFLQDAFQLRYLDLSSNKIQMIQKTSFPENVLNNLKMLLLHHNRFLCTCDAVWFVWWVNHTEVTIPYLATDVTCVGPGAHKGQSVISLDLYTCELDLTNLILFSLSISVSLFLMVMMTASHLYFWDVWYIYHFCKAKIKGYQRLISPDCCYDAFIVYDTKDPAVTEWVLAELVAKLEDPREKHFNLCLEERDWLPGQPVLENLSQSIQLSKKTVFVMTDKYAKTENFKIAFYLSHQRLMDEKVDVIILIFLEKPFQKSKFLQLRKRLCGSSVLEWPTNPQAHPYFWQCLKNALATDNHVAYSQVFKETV
Assay: HEK293-Blue-hTLR-7 cells assay (SEAP reporter, R848 stimulation)
Type: cell-based
Conditions: HEK293-Blue-hTLR7 cells, R848, 20 hrs; read-out: HEK/hTLR7 IC50
Outline: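 HEK293-Blue-hTLR7 cells (NF-κB/AP-1-driven SEAP reporter) were stimulated with R848 alongside serially diluted compound at 1% final DMSO for 20 h at 37 °C. Supernatant SEAP was then developed with QUANTI-Blue for 2 h at 37 °C and absorbance read at 620–655 nm; antagonism is measured as reduced reporter signal.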

`Cc1cc(N2CCN(C[C@H]3CN(c4ccc(C#N)c5ncccc45)C[C@@H](C)O3)CC2)nc(N2CCNCC2)n1` [Example 47, 5-[(2R,6S)-2-methyl-6-[[4-(6-methyl-2-piperazin-1-yl-pyrimidin-4-yl)piperazin-1-yl]methyl]morpholin-4-yl]quinoline-8-carbonitrile] and `Cc1cc(N2CCNCC2)nc(N2CCN(C[C@H]3CN(c4ccc(C#N)c5ncccc45)C[C@@H](C)O3)CC2)n1` [Example 68, 5-[(2R,6S)-2-methyl-6-[[4-(4-methyl-6-piperazin-1-yl-pyrimidin-2-yl)piperazin-1-yl]methyl]morpholin-4-yl]quinoline-8-carbonitrile] are within 1.5-fold of each other in IC50: 13 nM for the first, 9 nM for the second.

Going from `COc1cnc(N2CCNCC2)nc1N1CCN(C[C@H]2CN(c3ccc(C#N)c4ncccc34)C[C@@H](C)O2)CC1` [Example 48, 5-[(2S,6R)-2-[[4-(5-methoxy-2-piperazin-1-yl-pyrimidin-4-yl)piperazin-1-yl]methyl]-6-methyl-morpholin-4-yl]quinoline-8-carbonitrile] to `C[C@@H]1CN(c2ccc(C#N)c3ncccc23)C[C@H](CN2CCN(c3nc(N4CCNCC4)ncc3C#N)CC2)O1` [Example 50, 5-[(2S,6R)-2-[[4-(5-cyano-2-piperazin-1-yl-pyrimidin-4-yl)piperazin-1-yl]methyl]-6-methyl-morpholin-4-yl]quinoline-8-carbonitrile], the IC50 rises from 9 nM to 16 nM (1.8-fold). The first is the more potent here.

`C[C@@H]1CN(c2ccc(C#N)c3ncccc23)C[C@H](CN2CCN(c3nc(N4CCNCC4)nc4ccccc34)CC2)O1` [Example 49, 5-[(2R,6S)-2-methyl-6-[[4-(2-piperazin-1-ylquinazolin-4-yl)piperazin-1-yl]methyl]morpholin-4-yl]quinoline-8-carbonitrile] and `C[C@@H]1CN(c2ccc(C#N)c3ncccc23)C[C@H](CN2CCN(c3ncc(C#N)c(N4CCNCC4)n3)CC2)O1` [Example 51, 5-[(2S,6R)-2-[[4-(5-cyano-4-piperazin-1-yl-pyrimidin-2-yl)piperazin-1-yl]methyl]-6-methyl-morpholin-4-yl]quinoline-8-carbonitrile] are within 1.5-fold of each other in IC50: 29 nM for the first, 28 nM for the second.

`Cc1cc(N2CCN(C[C@H]3CN(c4ccc(C#N)c5ncccc45)C[C@@H](C)O3)CC2)nc(N2C[C@@H](N)[C@@H](F)C2)n1` [Example 55, 5-[(2S,6R)-2-[[4-[2-[(3R,4S)-3-amino-4-fluoro-pyrrolidin-1-yl]-6-methyl-pyrimidin-4-yl]piperazin-1-yl]methyl]-6-methyl-morpholin-4-yl]quinoline-8-carbonitrile] and `CO[C@H]1CN(c2nc(C)cc(N3CCN(C[C@H]4CN(c5ccc(C#N)c6ncccc56)C[C@@H](C)O4)CC3)n2)C[C@H]1N` [Example 60, 5-[(2R,6S)-2-methyl-6-[[4-[6-methyl-2-[cis-3-amino-4-methoxy-pyrrolidin-1-yl]pyrimidin-4-yl]piperazin-1-yl]methyl]morpholin-4-yl]quinoline-8-carbonitrile] are within 1.5-fold of each other in IC50: 14 nM for the first, 11 nM for the second.

Going from `Cc1cc(N2CCN(C[C@H]3CN(c4ccc(C#N)c5ncccc45)C[C@@H](C)O3)CC2)nc(N2CCOCC(N)C2)n1` (stereo partly drawn) [Example 56, 5-[(2S,6R)-2-[[4-[2-(6-amino-1,4-oxazepan-4-yl)-6-methyl-pyrimidin-4-yl]piperazin-1-yl]methyl]-6-methyl-morpholin-4-yl]quinoline-8-carbonitrile] to `Cc1cc(N2CCN(C[C@H]3CN(c4ccc(C#N)c5ncccc45)C[C@@H](C)O3)CC2)nc(N2CCNCC(O)C2)n1` (stereo partly drawn) [Example 66, 5-[(2S,6R)-2-[[4-[2-(6-hydroxy-1,4-diazepan-1-yl)-6-methyl-pyrimidin-4-yl]piperazin-1-yl]methyl]-6-methyl-morpholin-4-yl]quinoline-8-carbonitrile], the IC50 falls from 56 nM to 17 nM (3.3-fold). The second is the more potent here.

Compared with `Cc1cc(N2CCN(C[C@H]3CN(c4ccc(C#N)c5ncccc45)C[C@@H](C)O3)CC2)nc(NC2CNCC2C#N)n1` (stereo partly drawn) [Example 57, 5-[(2S,6R)-2-[[4-[2-[(4-cyanopyrrolidin-3-yl)amino]-6-methyl-pyrimidin-4-yl]piperazin-1-yl]methyl]-6-methyl-morpholin-4-yl]quinoline-8-carbonitrile], `Cc1cc(N2CCN(C[C@H]3CN(c4ccc(C#N)c5ncccc45)C[C@@H](C)O3)CC2)nc(N2CC(N)C(F)(F)C2)n1` (stereo partly drawn) [Example 63, 5-[(2S,6R)-2-[[4-[2-(4-amino-3,3-difluoro-pyrrolidin-1-yl)-6-methyl-pyrimidin-4-yl]piperazin-1-yl]methyl]-6-methyl-morpholin-4-yl]quinoline-8-carbonitrile] is 2-fold higher in IC50: 27 nM for the first, 54 nM for the second. The first is the more potent here.

Compared with `Cc1cc(N2CCN(C[C@H]3CN(c4ccc(C#N)c5ncccc45)C[C@@H](C)O3)CC2)nc(N2C[C@@H]3COC[C@@H](C2)N3)n1` [Example 58, 5-[(2R,6S)-2-methyl-6-[[4-[6-methyl-2-[(1R,5R)-3-oxa-7,9-diazabicyclo[3.3.1]nonan-7-yl]pyrimidin-4-yl]piperazin-1-yl]methyl]morpholin-4-yl]quinoline-8-carbonitrile], `Cc1cc(N2CCN(C[C@H]3CN(c4ccc(C#N)c5ncccc45)C[C@@H](C)O3)CC2)nc(N2CC3(CNCCO3)C2)n1` [Example 61, 5-[(2R,6S)-2-methyl-6-[[4-[6-methyl-2-(5-oxa-2,8-diazaspiro[3.5]nonan-2-yl)pyrimidin-4-yl]piperazin-1-yl]methyl]morpholin-4-yl]quinoline-8-carbonitrile] is 3.8-fold lower in IC50: 30 nM for the first, 8 nM for the second. The second is the more potent here.

Compared with `C[C@@H]1CN(c2ccc(C#N)c3ncccc23)C[C@H](CN2CCN(c3cccc(C4CNCCO4)c3)CC2)O1` (stereo partly drawn) [Example 62, 5-[(2R,6S)-2-methyl-6-[[4-(3-morpholin-2-ylphenyl)piperazin-1-yl]methyl]-morpholin-4-yl]quinoline-8-carbonitrile], `Cc1cc(N2CCN(C[C@H]3CN(c4ccc(C#N)c5nccnc45)C[C@@H](C)O3)CC2)nc(N2CCNCC2)n1` [Example 64, 8-[(2R,6S)-2-methyl-6-[[4-(6-methyl-2-piperazin-1-yl-pyrimidin-4-yl)piperazin-1-yl]methyl]morpholin-4-yl]quinoxaline-5-carbonitrile] is 3.6-fold lower in IC50: 18 nM for the first, 5 nM for the second.

Going from `Cc1cc(N2CCN(C[C@H]3CN(c4ccc(C(F)(F)F)c5nccnc45)C[C@@H](C)O3)CC2)nc(N2CCNCC2)n1` [Example 65, (2R,6S)-2-methyl-6-[[4-(6-methyl-2-piperazin-1-yl-pyrimidin-4-yl)piperazin-1-yl]methyl]-4-[8-(trifluoromethyl)quinoxalin-5-yl]morpholine] to `Cc1cc(N2CCN(C[C@H]3CN(c4ccc(C#N)n5ncc(F)c45)C[C@@H](C)O3)CC2)nc(N2CCNCC2)n1` [Example 67, 3-Fluoro-4-[(2R,6S)-2-methyl-6-[[4-(6-methyl-2-piperazin-1-yl-pyrimidin-4-yl)piperazin-1-yl]methyl]morpholin-4-yl]pyrazolo[1,5-a]pyridine-7-carbonitrile], the IC50 rises from 15 nM to 24 nM (1.6-fold).

`C[C@@H]1CN(c2ccc(C#N)n3ncc(F)c23)C[C@H](CN2CCN(c3ccc(N[C@H]4CNC[C@H]4F)nc3)CC2)O1` [Example 167, 3-fluoro-4-[(2S,6R)-2-[[4-[6-[[(3S,4R)-4-fluoropyrrolidin-3-yl]amino]-3-pyridyl]piperazin-1-yl]methyl]-6-methyl-morpholin-4-yl]pyrazolo[1,5-a]pyridine-7-carbonitrile] and `C[C@@H]1CN(c2ccc(C#N)n3ncc(F)c23)C[C@H](CN2CCN(c3ccc(N4C[C@H]5NCCO[C@@H]5C4)nc3)CC2)O1` [Example 168, 4-[(2S,6R)-2-[[4-[6-[(4aR,7aR)-3,4,4a,5,7,7a-hexahydro-2H-pyrrolo[3,4-b][1,4]oxazin-6-yl]-3-pyridyl]piperazin-1-yl]methyl]-6-methyl-morpholin-4-yl]-3-fluoro-pyrazolo[1,5-a]pyridine-7-carbonitrile] are within 1.5-fold of each other in IC50: 14 nM for the first, 20 nM for the second.

`C[C@@H]1CN(c2ccc(C#N)n3ncc(F)c23)C[C@H](CN2CCN(c3ccc(N4CC5(CNCCO5)C4)nc3)CC2)O1` [Example 169, 3-fluoro-4-[(2R,6S)-2-methyl-6-[[4-[6-(5-oxa-2,8-diazaspiro[3.5]nonan-2-yl)-3-pyridyl]piperazin-1-yl]methyl]morpholin-4-yl]pyrazolo[1,5-a]pyridine-7-carbonitrile] gave an IC50 of 9 nM.
